Results: ChEMBL document CHEMBL1201862, “PubChem BioAssay data set” (2004)
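Five concentrations, 48 hours, 96-well plates. Abbreviation: GI50, concentration required for 50% inhibition of growth.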 Calls of active or inactive are those of the source. Rule as the data show it: active = GI50 up to about 1.1 µM and inactive = higher.

How the values were obtained:
Test in all cases: NCI anticancer screen, dose series, 48 h
[1] = tested on: A549
[2] = tested on: SF-295
[3] = tested on: NCI-H226
[4] = tested on: HCT-15
[5] = tested on: NCI-H23
[6] = tested on: KM12
[7] = tested on: SK-MEL-2
[8] = tested on: SN12C
[9] = tested on: SK-OV-3
[10] = tested on: OVCAR-8
[11] = tested on: HOP-62
[12] = tested on: HOP-92
[13] = tested on: OVCAR-4
[14] = tested on: UACC-62
[15] = tested on: MDA-MB-231
[16] = tested on: MCF7
[17] = tested on: MDA-MB-435

Row | SMILES | GI50 [1] | GI50 [2] | GI50 [3] | GI50 [4] | GI50 [5] | GI50 [6] | GI50 [7] | GI50 [8] | GI50 [9] | GI50 [10] | GI50 [11] | GI50 [12] | GI50 [13] | GI50 [14] | GI50 [15] | GI50 [16] | GI50 [17]
1 | Cc1ccccc1NC(=O)C(=O)C(c1cnc2ccc([N+](=O)[O-])cc2n1)[N+](=O)[O-] (stereo not drawn) | > 100 µM (inactive) | > 100 µM (inactive) | > 100 µM (inactive) | > 100 µM | > 100 µM (inactive) | > 100 µM (inactive) | > 100 µM (inactive) | > 100 µM (inactive) | > 100 µM (inactive) | > 100 µM (inactive) | > 100 µM (inactive) | > 100 µM (inactive) | > 100 µM (inactive) | 51.5 µM (inactive) | – | – | –
2 | CC(C)(C)OC(=O)N1N=NC2C1C1CC(OCc3ccccc3)(OCc3ccccc3)C2O1 (stereo not drawn) | 84.5 µM (inactive) | 40 µM (inactive) | 21.4 µM (inactive) | 31.3 µM | 21.1 µM (inactive) | 81.8 µM (inactive) | 49.2 µM (inactive) | 49.4 µM (inactive) | > 100 µM (inactive) | – | > 100 µM (inactive) | 33.5 µM (inactive) | 32.5 µM (inactive) | 71.4 µM (inactive) | – | – | –
3 | CC12CC[C@@H](C(C)(C)O)C1[C@@H](O)CC1(C)C2CCC2[C@@]3(C)CC[C@H](O)C(C)(C)C3C(O)C[C@]21C (stereo partly drawn) | 11.5 µM (inactive) | 18.3 µM (inactive) | – | 11.5 µM | 16.1 µM (inactive) | 14.6 µM (inactive) | 18.7 µM (inactive) | 13.4 µM (inactive) | – | 16.5 µM (inactive) | – | 17.4 µM (inactive) | 13.1 µM (inactive) | 15.6 µM (inactive) | – | – | –
4 | Cn1c(N)c(-c2c3ccccc3nc3ccccc23)c(=O)n(C)c1=O | > 100 µM (inactive) | > 100 µM (inactive) | – | > 100 µM | > 100 µM (inactive) | > 100 µM (inactive) | > 100 µM (inactive) | > 100 µM (inactive) | > 100 µM (inactive) | > 100 µM (inactive) | – | > 100 µM (inactive) | > 100 µM (inactive) | > 100 µM (inactive) | – | – | –
5 | CCc1cc(Cc2cc(CC)c(NC(=O)C3=CC(=O)CC(c4ccc(OC)cc4)O3)c(CC)c2Cl)c(Cl)c(CC)c1NC(=O)C1=CC(=O)CC(c2ccc(OC)cc2)O1 (stereo not drawn) | 23.9 µM (inactive) | 19.8 µM (inactive) | 24.8 µM (inactive) | 25.6 µM | 17.1 µM (inactive) | 10.5 µM (inactive) | 17.3 µM (inactive) | 22 µM (inactive) | 17 µM (inactive) | 26.5 µM (inactive) | 22.2 µM (inactive) | 20.8 µM (inactive) | 25.2 µM (inactive) | 23.8 µM (inactive) | – | – | –
6 | N#CC(/C(=N/NC(=O)C(=O)NN)C(=O)Nc1nc([N+](=O)[O-])cs1)c1ccc(Cl)cc1 (stereo not drawn) | > 100 µM (inactive) | > 100 µM (inactive) | > 100 µM (inactive) | – | > 100 µM (inactive) | > 100 µM (inactive) | > 100 µM (inactive) | > 100 µM (inactive) | – | > 100 µM (inactive) | > 100 µM (inactive) | > 100 µM (inactive) | > 100 µM (inactive) | 56.5 µM (inactive) | – | – | –
7 | N#C/C1=C(\N)CCSSSC1 | 45.2 µM (inactive) | 19.6 µM (inactive) | 33.6 µM (inactive) | 27.9 µM | 32.1 µM (inactive) | 51.1 µM (inactive) | 25.8 µM (inactive) | 36.3 µM (inactive) | 52.5 µM (inactive) | 21 µM (inactive) | 29.2 µM (inactive) | 32.1 µM (inactive) | 33.9 µM (inactive) | – | – | – | –
8 | Cc1nnc2n1N=C(c1ccc(-c3ccc([N+](=O)[O-])cc3)o1)CS2 | > 100 µM (inactive) | > 100 µM (inactive) | > 100 µM (inactive) | > 100 µM | 35.1 µM (inactive) | > 100 µM (inactive) | > 100 µM (inactive) | > 100 µM (inactive) | > 100 µM (inactive) | > 100 µM (inactive) | > 100 µM (inactive) | > 100 µM (inactive) | > 100 µM (inactive) | > 100 µM (inactive) | – | – | –
9 | O=c1cc(CC(O)(C(F)(F)Cl)C(F)(F)Cl)[nH]n1-c1ccccc1 | > 100 µM (inactive) | > 100 µM (inactive) | 66.4 µM (inactive) | > 100 µM | > 100 µM (inactive) | > 100 µM (inactive) | – | > 100 µM (inactive) | > 100 µM (inactive) | > 100 µM (inactive) | > 100 µM (inactive) | 20.7 µM (inactive) | > 100 µM (inactive) | > 100 µM (inactive) | > 100 µM (inactive) | > 100 µM (inactive) | > 100 µM (inactive)
10 | O=C(CCc1nnc2s/c(=C\c3ccc([N+](=O)[O-])cc3)c(=O)n12)Nc1ccc(Cl)c(Cl)c1 | 40.7 µM (inactive) | 25.1 µM (inactive) | 14.4 µM (inactive) | 24.7 µM | 25.8 µM (inactive) | 16 µM (inactive) | 27.7 µM (inactive) | 25.2 µM (inactive) | 38.5 µM (inactive) | 20.1 µM (inactive) | 20.3 µM (inactive) | 38.6 µM (inactive) | 18.6 µM (inactive) | 26.5 µM (inactive) | – | – | –
